Publication PMC6981637, “Tetrahydroquinoline-Isoxazole/Isoxazoline Hybrid Compounds as Potential Cholinesterases Inhibitors: Synthesis, Enzyme Inhibition Assays, and Molecular Modeling Studies” (International Journal of Molecular Sciences, 2019)
Values joined by “and” are separate entries in the source; they are usually repeats but may differ in a detail not shown here. Equal values may be shown once.

Tests used:
[1] = target: AChE (from Electrophorus electricus) (Electrophorus electricus, UniProt O42275); details: for IC50: read-out: AChE (IC50)
AChE (from Electrophorus electricus), sequence (O42275 24-633): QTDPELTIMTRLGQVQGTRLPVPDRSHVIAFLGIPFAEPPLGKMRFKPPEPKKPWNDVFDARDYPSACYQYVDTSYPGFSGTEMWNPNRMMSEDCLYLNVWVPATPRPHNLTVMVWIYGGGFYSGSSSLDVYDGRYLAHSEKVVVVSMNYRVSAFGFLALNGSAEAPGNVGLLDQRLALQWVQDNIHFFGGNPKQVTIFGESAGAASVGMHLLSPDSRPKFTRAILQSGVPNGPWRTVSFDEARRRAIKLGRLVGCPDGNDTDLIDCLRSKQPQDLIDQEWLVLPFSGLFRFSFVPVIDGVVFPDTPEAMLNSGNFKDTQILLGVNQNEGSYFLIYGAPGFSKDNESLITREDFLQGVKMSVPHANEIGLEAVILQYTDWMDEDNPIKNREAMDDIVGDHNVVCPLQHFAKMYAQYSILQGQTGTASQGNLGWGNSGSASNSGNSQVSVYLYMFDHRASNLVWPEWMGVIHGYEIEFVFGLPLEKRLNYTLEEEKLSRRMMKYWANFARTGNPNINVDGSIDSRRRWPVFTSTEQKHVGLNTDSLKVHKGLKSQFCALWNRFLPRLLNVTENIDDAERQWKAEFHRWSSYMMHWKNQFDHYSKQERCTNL

BChE (from bovine serum) = target: T1, BChE (from bovine serum) (Bos taurus, UniProt P32749); experiment: BChE inhibitory activity (Ellman method); type: biochemical; details: for IC50: Table 2, THQ–isoxazole hybrids 6, average from three independent experiments ± SEM, read-out: BChE (IC50); for selectivity against BChE: conclusions
T1 construct: purchased Sigma-Aldrich
T1 sequence (P32749 29-602): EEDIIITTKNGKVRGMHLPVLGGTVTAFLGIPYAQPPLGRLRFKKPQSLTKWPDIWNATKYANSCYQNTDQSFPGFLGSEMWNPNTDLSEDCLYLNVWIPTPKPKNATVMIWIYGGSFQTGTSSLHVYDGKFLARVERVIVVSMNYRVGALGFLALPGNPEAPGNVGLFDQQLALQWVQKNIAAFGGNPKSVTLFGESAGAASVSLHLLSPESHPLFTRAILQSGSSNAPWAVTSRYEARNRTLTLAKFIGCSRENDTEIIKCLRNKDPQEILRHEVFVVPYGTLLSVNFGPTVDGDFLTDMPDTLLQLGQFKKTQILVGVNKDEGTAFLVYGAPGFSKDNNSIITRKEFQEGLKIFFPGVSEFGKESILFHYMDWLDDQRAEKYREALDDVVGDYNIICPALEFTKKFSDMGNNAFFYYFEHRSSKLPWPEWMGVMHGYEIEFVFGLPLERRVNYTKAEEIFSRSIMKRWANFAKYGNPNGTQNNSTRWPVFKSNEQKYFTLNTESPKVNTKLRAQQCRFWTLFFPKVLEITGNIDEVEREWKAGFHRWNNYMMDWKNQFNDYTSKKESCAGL

## COc1cc(Cl)c2c(c1)C(N1CCCC1=O)CCN2Cc1cc(-c2ccc(OC)c(OC)c2)no1 (centres unmarked) [6j, 5-((8′-chloro-6′-methoxy-4′-(2′’-oxopyrrolidin-1′’-yl)-3′,4′-dihydroquinolin-1′(2′H)-yl)methyl)-3-(3,4-dimethoxyphenyl)isoxazole]
[1]
  SI: 2.72
  IC50: 54.69 ± 0.01 µM
BChE (from bovine serum)
  IC50: 149 ± 0.02 µM

## COc1ccc2c(c1)C(N1CCCC1=O)CCN2Cc1cc(-c2cc(OC)c(OC)c(OC)c2)no1 (centres unmarked) [6k, 3-(3,4,5-trimethoxyphenyl)-5-((6′-methoxy-4′-(2′’-oxopyrrolidin-1′’-yl)-3′,4′-dihydroquinolin-1′(2′H)-yl)methyl)isoxazole]
[1]
  SI: 3.63
  IC50: 20.19 ± 0.02 µM
BChE (from bovine serum)
  IC50: 73.26 ± 0.01 µM

## O=C1CCCN1C1CCN(Cc2cc(-c3ccccc3)no2)c2ccc(Cl)cc21 (centres unmarked) [6l, 5-((6′-chloro-4′-(2′’-oxopyrrolidin-1′’-yl)-3′,4′-dihydroquinolin-1′(2′H)-yl)methyl)-3-phenylisoxazole]
[1]
  SI: 0.15
  IC50: 92.01 ± 0.05 µM
BChE (from bovine serum)
  IC50: 14.11 ± 0.02 µM
  selectivity against BChE: more selective

## COc1ccc(-c2cc(CN3CCC(N4CCCC4=O)c4cc(Cl)ccc43)on2)cc1 (centres unmarked) [6m, 5-((6′-chloro-4′-(2′’-oxopyrrolidin-1′’-yl)-3′,4′-dihydroquinolin-1′(2′H)-yl)methyl)-3-(4-methoxyphenyl)isoxazole]
[1]
  SI: 1.39
  IC50: 13.27 ± 0.01 µM
BChE (from bovine serum)
  IC50: 18.42 ± 0.01 µM

## COc1ccc(-c2cc(CN3CCC(N4CCCC4=O)c4cc(Cl)ccc43)on2)cc1OC (centres unmarked) [6n, 5-((6′-chloro-4′-(2′’-oxopyrrolidin-1′’-yl)-3′,4′-dihydroquinolin-1′(2′H)-yl)methyl)-3-(3,4-dimethoxyphenyl)isoxazole]
[1]
  SI: 2.75
  IC50: 8.98 ± 0.01 µM
BChE (from bovine serum)
  IC50: 24.67 ± 0.01 µM

## COc1ccc(-c2cc(CN3CCC(N4CCCC4=O)c4cc(Cl)cc(Cl)c43)on2)cc1OC (centres unmarked) [6o, 5-((6′,8′-dichloro-4′-(2′’-oxopyrrolidin-1′’-yl)-3′,4′-dihydroquinolin-1′(2′H)-yl)methyl)-3-(3,4-dimethoxyphenyl)isoxazole]
[1]
  SI: 3.88
  IC50: 80.89 ± 0.04 µM
BChE (from bovine serum)
  IC50: 313.82 ± 0.01 µM

## COc1cc(-c2cc(CN3CCC(N4CCCC4=O)c4cc(Cl)ccc43)on2)cc(OC)c1OC (centres unmarked) [6p, 5-((6′-chloro-4′-(2′’-oxopyrrolidin-1′’-yl)-3′,4′-dihydroquinolin-1′(2′H)-yl)methyl)-3-(3,4,5-trimethoxyphenyl)isoxazole]
[1]
  SI: 1.11
  IC50: 41.95 ± 0.11 µM
BChE (from bovine serum)
  IC50: 46.84 ± 0.01 µM

## CCc1ccc2c(c1)C(N1CCCC1=O)CCN2Cc1cc(-c2ccccc2)no1 (centres unmarked) [6q, 5-((6′-ethyl-4′-(2′’-oxopyrrolidin-1′’-yl)-3′,4′-dihydroquinolin-1′(2′H)-yl)methyl)-3-phenylisoxazole]
[1]
  SI: 1.43
  IC50: 75.95 ± 0.04 µM
BChE (from bovine serum)
  IC50: 108.28 ± 0.01 µM

## CCc1ccc2c(c1)C(N1CCCC1=O)CCN2Cc1cc(-c2ccc(OC)cc2)no1 (centres unmarked) [6r, 5-((6′-ethyl-4′-(2′’-oxopyrrolidin-1′’-yl)-3′,4′-dihydroquinolin-1′(2′H)-yl)methyl)-3-(4-methoxyphenyl)isoxazole]
[1]
  SI: 0.38
  IC50: 18.83 ± 0.003 µM
BChE (from bovine serum)
  IC50: < 7.18 µM and 7.18 µM

## CCc1cc(Cl)c2c(c1)C(N1CCCC1=O)CCN2Cc1cc(-c2ccc(OC)c(OC)c2)no1 (centres unmarked) [6s, 5-((8′-chloro-6′-ethyl-4′-(2′’-oxopyrrolidin-1′’-yl)-3′,4′-dihydroquinolin-1′(2′H)-yl)methyl)-3-(3,4-dimethoxyphenyl)isoxazole]
[1]
  SI: 0.83
  IC50: 26.82 ± 0.002 µM
BChE (from bovine serum)
  IC50: 22.28 ± 0.004 µM

## O=C1CCCN1C1CCN(Cc2cc(-c3ccccc3)no2)c2ccc(F)cc21 (centres unmarked) [6u, 5-((6′-fluor-4′-(2′’-oxopyrrolidin-1′’-yl)-3′,4′-dihydroquinolin-1′(2′H)-yl)methyl)-3-phenylisoxazole]
[1]
  SI: 0.15
  IC50: 116.63 ± 0.01 µM
BChE (from bovine serum)
  IC50: 17.74 ± 0.01 µM
  selectivity against BChE: more selective

## COc1ccc(-c2cc(CN3CCC(N4CCCC4=O)c4cc(F)ccc43)on2)cc1 (centres unmarked) [6v, 5-((6′-fluoro-4′-(2′’-oxopyrrolidin-1′’-yl)-3′,4′-dihydroquinolin-1′(2′H)-yl)methyl)-3-(4-methoxyphenyl)isoxazole]
[1]
  SI: 1.97
  IC50: 42.48 ± 0.004 µM
BChE (from bovine serum)
  IC50: 83.75 ± 0.01 µM

## COc1ccc(-c2cc(CN3CCC(N4CCCC4=O)c4cc(F)ccc43)on2)cc1OC (centres unmarked) [6w, 5-((6′-fluoro-4′-(2′’-oxopyrrolidin-1′’-yl)-3′,4′-dihydroquinolin-1′(2′H)-yl)methyl)-3-(3,4-dimethoxyphenyl)isoxazole]
[1]
  SI: 2.79
  IC50: 16.83 ± 0.002 µM
BChE (from bovine serum)
  IC50: 46.92 ± 0.01 µM

## COc1cc(-c2cc(CN3CCC(N4CCCC4=O)c4cc(F)ccc43)on2)cc(OC)c1OC (centres unmarked) [6x, 5-((6′-fluoro-4′-(2′’-oxopyrrolidin-1′’-yl)-3′,4′-dihydroquinolin-1′(2′H)-yl)methyl)-3-(3,4,5-trimethoxyphenyl)isoxazole]
[1]
  SI: 6.57
  IC50: 24.83 ± 0.003 µM
BChE (from bovine serum)
  IC50: 163.12 ± 0.01 µM

## O=C1CCCN1C1CCN(Cc2cc(-c3ccccc3)no2)c2ccc(Br)cc21 (centres unmarked) [6y, 5-((6′-bromo-4′-(2′’-oxopyrrolidin-1′’-yl)-3′,4′-dihydroquinolin-1′(2′H)-yl)methyl)-3-phenylisoxazole]
[1]
  SI: 0.87
  IC50: 97.84 ± 0.01 µM
BChE (from bovine serum)
  IC50: 84.91 ± 0.01 µM

## COc1ccc(-c2cc(CN3CCC(N4CCCC4=O)c4cc(Br)ccc43)on2)cc1 (centres unmarked) [6z, 3-(4-methoxyphenyl)-5-((6′-bromo-4′-(2′’-oxopyrrolidin-1′’-yl)-3′,4′-dihydroquinolin-1′(2′H)-yl)methyl)isoxazole]
[1]
  SI: 0.48
  IC50: 12.19 ± 0.005 µM
BChE (from bovine serum)
  IC50: < 7.18 µM and 5.81 µM
